# Structures can show the parent of a compound that is named as a salt. Where two headings read alike, the source gives them in different places.
# Test system: LMP1 expression in Kem I cells
# Assay: microbe, parasite or virus in culture
# Format: cell-based, EBV
# Conditions: for Average LMP1 Fold Increase / Replicate 1-LMP1 Fold Increase / Replicate 2-LMP1 Fold Increase: Kem I cells, 48 hours; for fold induction at 2.5 µM / fold induction at 1 µM: human gammaherpesvirus 4, 48 h
# [1] = 2.5 uM, average of replicates 1 and 2
# [2] = 2.5 uM, fold change in LMP1 transcript vs vehicle
# [3] = read-out: Average LMP1 Fold Increase, Kem I cells, 2.5 uM, 48 hours, average of replicates 1 and 2
# [4] = read-out: Replicate 1-LMP1 Fold Increase, Kem I cells, 2.5 uM, 48 hours, fold change in LMP1 transcript vs vehicle
# [5] = read-out: Replicate 2-LMP1 Fold Increase, Kem I cells, 2.5 uM, 48 hours, fold change in LMP1 transcript vs vehicle
# [6] = read-out: Average LMP1 Fold Increase, Kem I cells, dose 2.5 uM, 48 hours, LMP1 transcript by in-well qRT-PCR, average of the two replicates
# [7] = read-out: Replicate 1-LMP1 Fold Increase, Kem I cells, dose 2.5 uM, 48 hours, LMP1 transcript by in-well qRT-PCR, screen replicate 1
# [8] = read-out: Replicate 2-LMP1 Fold Increase, Kem I cells, dose 2.5 uM, 48 hours, LMP1 transcript by in-well qRT-PCR, screen replicate 2
# [9] = dose 2.5 uM, LMP1 transcript by in-well qRT-PCR, average of the two replicates
# [10] = dose 2.5 uM, LMP1 transcript by in-well qRT-PCR, screen replicate 1
# [11] = dose 2.5 uM, LMP1 transcript by in-well qRT-PCR, screen replicate 2
compound,measurement,setting,value
c1ccc(CNc2nc(NCc3ccccc3)c3ccccc3n2)cc1 [DBeQ],Average LMP1 Fold Increase,[1],0.99
same,Replicate 1-LMP1 Fold Increase,[2],0.72
same,Replicate 2-LMP1 Fold Increase,[2],1.25
CNC(=O)c1cc(Oc2ccc(NC(=O)Nc3cc(C(C)(C)C)nn3-c3ccc4ncccc4c3)c(F)c2)ccn1 [DCC-2036 (Rebastinib)],Average LMP1 Fold Increase,[1],0.38
same,Replicate 1-LMP1 Fold Increase,[2],0.50
same,Replicate 2-LMP1 Fold Increase,[2],0.25
CC(C)NCC(O)COc1ccc(COCCOC(C)C)cc1 (stereo not drawn) [Bisoprolol fumarate],fold induction at 2.5 µM,[3],1.07
same,fold induction at 2.5 µM,[4],0.41
same,fold induction at 2.5 µM,[5],1.73
O=c1ncccn1[C@@H]1O[C@H](CO)[C@@H](O)[C@H]1O [Zebularine],fold induction at 2.5 µM,[6],0.52
same,fold induction at 2.5 µM,[7],0.24
same,fold induction at 2.5 µM,[8],0.79
CCn1c(=O)c2c(nc(/C=C/c3ccc(OC)c(OC)c3)n2C)n(CC)c1=O [Istradefylline],fold induction at 2.5 µM,[3],0.7
same,fold induction at 2.5 µM,[4],0.35
same,fold induction at 2.5 µM,[5],1.06
C=CC(=O)Nc1cccc(Oc2nc(Nc3ccc(N4CCN(C)CC4)cc3OC)ncc2Cl)c1 [WZ4002],Average LMP1 Fold Increase,[9],0.90 fold
same,Replicate 1-LMP1 Fold Increase,[10],0.58 fold
same,Replicate 2-LMP1 Fold Increase,[11],1.23 fold
CCCCNc1ncc(-c2ccc(CN3CCOCC3)cn2)c(NC2CCC(O)CC2)n1 (stereo not drawn) [UNC2250],Average LMP1 Fold Increase,[9],0.41 fold
same,Replicate 1-LMP1 Fold Increase,[10],0.54 fold
same,Replicate 2-LMP1 Fold Increase,[11],0.29 fold
COc1cc(-n2c(=S)[nH]c3ccccc3c2=O)c(Cl)cc1Cl [Mdivi-1],Average LMP1 Fold Increase,[1],0.64
same,Replicate 1-LMP1 Fold Increase,[2],0.51
same,Replicate 2-LMP1 Fold Increase,[2],0.77
O=C1[C@H](Cc2ccc(O)cc2)N2C(=O)CCN(C(=O)NCc3ccccc3)[C@H]2CN1Cc1cccc2ccccc12 [ICG-001],Average LMP1 Fold Increase,[1],1.04
same,Replicate 1-LMP1 Fold Increase,[2],1.17
same,Replicate 2-LMP1 Fold Increase,[2],0.92
c1ccc(CC2=NCCN2)cc1 [Tolazoline HCl],fold induction at 2.5 µM,[6],0.26
same,fold induction at 2.5 µM,[7],0.26
same,fold induction at 2.5 µM,[8],0.27
COCC[n+]1c2c(n(Cc3cnccn3)c1C)C(=O)c1ccccc1C2=O.[Br-] [YM155 (Sepantronium Bromide)],Average LMP1 Fold Increase,[9],0.00 fold
same,Replicate 1-LMP1 Fold Increase,[10],0.00 fold
same,Replicate 2-LMP1 Fold Increase,[11],0.00 fold
COc1cc(N2CCN(C)CC2)ccc1Nc1nccc(-c2cn(C)c3cnccc23)n1 [AZ191],Average LMP1 Fold Increase,[1],0.37
same,Replicate 1-LMP1 Fold Increase,[2],0.50
same,Replicate 2-LMP1 Fold Increase,[2],0.24
CC(C)(C)c1cnc(CSc2cnc(NC(=O)C3CCNCC3)s2)o1 [SNS-032 (BMS-387032)],Average LMP1 Fold Increase,[1],23.97
same,Replicate 1-LMP1 Fold Increase,[2],23.56
same,Replicate 2-LMP1 Fold Increase,[2],24.39
C[C@@H](NCCCc1cccc(C(F)(F)F)c1)c1cccc2ccccc12 [Cinacalcet HCl],fold induction at 2.5 µM,[3],0.75
same,fold induction at 2.5 µM,[4],1.17
same,fold induction at 2.5 µM,[5],0.34
S3I-201,Average LMP1 Fold Increase,[1],0.65
same,Replicate 1-LMP1 Fold Increase,[2],0.63
same,Replicate 2-LMP1 Fold Increase,[2],0.67
O=C(NNc1nc2cc(F)ccc2n2cccc12)c1cnccn1 [SC144],Average LMP1 Fold Increase,[1],1.51
same,Replicate 1-LMP1 Fold Increase,[2],1.00
same,Replicate 2-LMP1 Fold Increase,[2],2.02
CC(=O)c1cc([N+](=O)[O-])c(Sc2ccc(F)cc2F)s1 [P22077],Average LMP1 Fold Increase,[1],0.25
same,Replicate 1-LMP1 Fold Increase,[2],0.20
same,Replicate 2-LMP1 Fold Increase,[2],0.29
CCCc1nc2c(C)cc(-c3nc4ccccc4n3C)cc2n1Cc1ccc(-c2ccccc2C(=O)O)cc1 [Telmisartan],fold induction at 2.5 µM,[6],0.37
same,fold induction at 2.5 µM,[7],0.29
same,fold induction at 2.5 µM,[8],0.45
O=c1cc(N2CCOCC2)oc2c1ccc1ccccc12 [NU7026],Average LMP1 Fold Increase,[1],0.77
same,Replicate 1-LMP1 Fold Increase,[2],0.47
same,Replicate 2-LMP1 Fold Increase,[2],1.07
O=C(O)Cn1nnc(-c2cc(N3CCC(Oc4cc(F)ccc4Br)CC3)no2)n1 [MK-8245],fold induction at 2.5 µM,[3],1.17
same,fold induction at 2.5 µM,[4],1.51
same,fold induction at 2.5 µM,[5],0.84
CCOC(=O)c1ccc(N2NC(=O)/C(=C/c3ccc([N+](=O)[O-])o3)C2=O)cc1 [PYR-41],Average LMP1 Fold Increase,[1],0.49
same,Replicate 1-LMP1 Fold Increase,[2],0.50
same,Replicate 2-LMP1 Fold Increase,[2],0.49
CC(=O)OCC(=O)NCCCOc1cccc(CN2CCCCC2)c1 [Roxatidine Acetate HCl],fold induction at 2.5 µM,[3],0.2
same,fold induction at 2.5 µM,[4],0.15
same,fold induction at 2.5 µM,[5],0.24
CCC(=O)Nc1cccc(Oc2nc(Nc3ccc(N4CCN(C)CC4)cc3OC)ncc2Cl)c1 [WZ4003],Average LMP1 Fold Increase,[9],0.72 fold
same,Replicate 1-LMP1 Fold Increase,[10],0.79 fold
same,Replicate 2-LMP1 Fold Increase,[11],0.64 fold
Cc1ccc(S(=O)(=O)Cc2nc(-c3ccc(C(=O)NCc4cccnc4)cc3)oc2C)cc1 [STF-118804],Average LMP1 Fold Increase,[1],0.10
same,Replicate 1-LMP1 Fold Increase,[2],0.08
same,Replicate 2-LMP1 Fold Increase,[2],0.11
OC[C@H]1O[C@@H](c2ccc(Cl)c(Cc3ccc(O[C@H]4CCOC4)cc3)c2)[C@H](O)[C@@H](O)[C@@H]1O [Empagliflozin (BI 10773)],Average LMP1 Fold Increase,[1],0.58
same,Replicate 1-LMP1 Fold Increase,[2],0.67
same,Replicate 2-LMP1 Fold Increase,[2],0.50
"COc1cc2c(cc1Cc1cccc(Cl)c1F)c(=O)c(C(=O)O)cn2[C@H](CO)C(C)C [Elvitegravir (GS-9137, JTK-303)]",Average LMP1 Fold Increase,[1],1.23
same,Replicate 1-LMP1 Fold Increase,[2],1.25
same,Replicate 2-LMP1 Fold Increase,[2],1.20
"Cc1c(C(=O)Nc2ccc(N3C[C@@H](C)O[C@@H](C)C3)nc2)cccc1-c1ccc(OC(F)(F)F)cc1 [LDE225 (NVP-LDE225, Erismodegib)]",Average LMP1 Fold Increase,[1],0.39
same,Replicate 1-LMP1 Fold Increase,[2],0.50
same,Replicate 2-LMP1 Fold Increase,[2],0.29
O=c1[nH]c2ccc(Cl)cc2c(N[C@@H]2CN3CCC2CC3)c1-c1nc2ccccc2[nH]1 [CHIR-124],Average LMP1 Fold Increase,[1],68.46
same,Replicate 1-LMP1 Fold Increase,[2],105.57
same,Replicate 2-LMP1 Fold Increase,[2],31.35
CNC(=O)c1cc(Oc2ccc(NC(=O)Nc3ccc(Cl)c(C(F)(F)F)c3)cc2)ccn1 [Sorafenib],fold induction at 2.5 µM,[3],0.54
same,fold induction at 2.5 µM,[4],0.43
same,fold induction at 2.5 µM,[5],0.64
COc1ccc2cccc(CCNC(C)=O)c2c1 [Agomelatine],fold induction at 2.5 µM,[3],0.43
same,fold induction at 2.5 µM,[4],0.34
same,fold induction at 2.5 µM,[5],0.52
CNCc1ccc(-c2cc(-c3nc(-c4ccc(S(=O)(=O)C(C)C)cc4)cnc3N)on2)cc1 [VE-822],fold induction at 2.5 µM,[6],4.03
same,fold induction at 2.5 µM,[7],3.28
same,fold induction at 2.5 µM,[8],4.78
CN(c1ncccc1CNc1nc(Nc2ccc3c(c2)CC(=O)N3)ncc1C(F)(F)F)S(C)(=O)=O [PF-562271],Average LMP1 Fold Increase,[1],0.50
same,Replicate 1-LMP1 Fold Increase,[2],0.81
same,Replicate 2-LMP1 Fold Increase,[2],0.19
CC(C)OC(=O)C1=CN(C(=O)c2ccc(F)c(F)c2)CC(C)(C)c2c1[nH]c1ccccc21 [XL335],fold induction at 2.5 µM,[6],0.27
same,fold induction at 2.5 µM,[7],0.39
same,fold induction at 2.5 µM,[8],0.14
COc1ccccc1OCCNCC(O)COc1cccc2[nH]c3ccccc3c12 (stereo not drawn) [Carvedilol],fold induction at 2.5 µM,[3],0.88
same,fold induction at 2.5 µM,[4],0.89
same,fold induction at 2.5 µM,[5],0.87
VU 0357121,Average LMP1 Fold Increase,[9],0.48 fold
same,Replicate 1-LMP1 Fold Increase,[10],0.51 fold
same,Replicate 2-LMP1 Fold Increase,[11],0.46 fold
Cn1c(=O)n(-c2ccc(C(C)(C)C#N)cc2)c2c3cc(-c4cnc5ccccc5c4)ccc3ncc21 [BEZ 235],fold induction at 1 µM,"read-out: Average LMP1 Fold Increase, Kem I cells, 1 uM, 48 hours, average of replicates 1 and 2",13.3
same,fold induction at 1 µM,"read-out: Replicate 1-LMP1 Fold Increase, Kem I cells, 1 uM, 48 hours, fold change in LMP1 transcript vs vehicle",17.4
same,fold induction at 1 µM,"read-out: Replicate 2-LMP1 Fold Increase, Kem I cells, 1 uM, 48 hours, fold change in LMP1 transcript vs vehicle",9.2
Nc1cccc(-c2cc3c(Oc4cccc(O)c4)ncnc3[nH]2)c1 [TWS119],Average LMP1 Fold Increase,[9],0.56 fold
same,Replicate 1-LMP1 Fold Increase,[10],0.62 fold
same,Replicate 2-LMP1 Fold Increase,[11],0.49 fold
COc1c(C)c(C(=O)c2ccc(N)c(C(=O)[O-])c2)n2ccccc12.[Na+] [SSR128129E],Average LMP1 Fold Increase,[1],0.44
same,Replicate 1-LMP1 Fold Increase,[2],0.36
same,Replicate 2-LMP1 Fold Increase,[2],0.52
(−)-MK 801 Maleate,Average LMP1 Fold Increase,[1],0.88
same,Replicate 1-LMP1 Fold Increase,[2],0.94
same,Replicate 2-LMP1 Fold Increase,[2],0.81
C=CC(=O)Nc1cccc(Nc2nc(Nc3ccc(OCCOC)cc3)ncc2F)c1 [AVL-292],Average LMP1 Fold Increase,[1],0.52
same,Replicate 1-LMP1 Fold Increase,[2],0.48
same,Replicate 2-LMP1 Fold Increase,[2],0.56
O=C1CC[C@@]2(O)[C@H]3Cc4ccc(O)c5c4[C@@]2(CCN3CC2CC2)[C@H]1O5 [Naltrexone HCl],fold induction at 2.5 µM,[3],0.27
same,fold induction at 2.5 µM,[4],0.34
same,fold induction at 2.5 µM,[5],0.19
O=C(c1ccc(F)cc1)N1CCC[C@H](c2nc(-c3ccc(F)cc3)no2)C1 [ADX-47273],Average LMP1 Fold Increase,[1],0.58
same,Replicate 1-LMP1 Fold Increase,[2],0.81
same,Replicate 2-LMP1 Fold Increase,[2],0.35
Oc1c2ccccc2c2c3c(cccc13)N=N2 [SP600125],fold induction at 2.5 µM,[3],0.6
same,fold induction at 2.5 µM,[4],0.67
same,fold induction at 2.5 µM,[5],0.53

# Source: patent US20230053688A1, “METHODS TO ALTER LATENCY IN EBV+ MALIGNANCIES” (Cornell University, priority 2020, published 2023)
